In patent US20210205238A1, “STABILIZED INJECTABLE PHARMACEUTICAL COMPOSITION OF L-EPINEPHRINE” (MERCK PATENT GMBH, priority 2017, published 2021):
Where a name gives a salt, the structure may show the parent alone.

What was measured:
[1] = sulfonic acid derivative formed by reaction of epinephrine with sodium bisulfite; cited from earlier work
[2] = senior formulations 1.1 mg/mL, E:S 0.34, pH 3.9, 60° C., 28 days; vs epinephrine base
[3] = HPIC for determination of sodium metabisulfite as sulfite in stored formulations; format: physicochemical; conditions: after 28 days at 60° C., senior formulation 1.1 mg/mL
Experimental: Epinephrine formulations were diluted 1:100 (formulations with 1.67 mg/mL Na2S2O5), 1:50 (formulations with 0.95 mg/mL and 0.48 mg/mL Na2S2O5) and 1:25 (formulation with 0.16 mg/mL Na2S2O5) in water containing 0.37% formaldehyde. Chromatographic separation was conducted on a Dionex Ion chromatograph ICS3000. 50 μl sample were applied on a HPIC column (AS4aSC, 4 mm×250 mm Thermo Scientific) using a guard column (AG4aSC, 4 mm×50 mm Thermo Scientific). Chromatographic separation was conducted in Eluent A (1.3 mM sodium hydrogen carbonate and 1.4 mM sodium carbonate in water) at 30° C. over 20 min at a flow rate of 2 mL/min. Conductivity detection with suppressor technology was used at a cell temperature of 35° C.

Which biological activity [1] does the source give for `CNCC(c1ccc(O)c(O)c1)S(=O)(=O)O` (stereo not shown) [ESA, epinephrine sulfonic acid] here?
Its biological activity is “biologically inactive”.

Which D-enantiomer formation [2] does the source give for `CNC[C@H](O)c1ccc(O)c(O)c1` [epinephrine tartrate] here?
The D-enantiomer formation was “significantly reduced”.

For `O=S([O-])S(=O)(=O)[O-].[Na+].[Na+]` [sodium metabisulfite], which “sodium metabisulfite starting content degraded” value ([3]; at E:S=1.2) is on record?
Its value is greater than 70%.

What about the “sodium metabisulfite starting content degraded” value ([3]; at E:S=3) of the same molecule?
The value was greater than 90%.
